Experimental data reported in PubChem BioAssay (NCI).
Where “and” joins values, the source holds several entries; their conditions need not be identical. Equal values may be shown once.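 Exposure lasted 48 hours, with cells grown in 96-well plates and compounds tested at five concentrations. GI50 is the concentration that inhibits growth by half. The concentration for full growth arrest is given as TGI.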

What was measured:
Test in all cases: NCI tumour cell line growth inhibition, 48 h
[1] = system: U251 CNS
[2] = system: NCI-H522 lung
[3] = system: SW-620 colon
[4] = system: M14 melanoma
[5] = system: 786-0 renal
[6] = system: OVCAR-3 ovarian
[7] = system: CAKI-1 renal
[8] = system: SK-OV-3 ovarian
[9] = system: NCI/ADR-RES ovarian
[10] = system: SR leukemia

Row | Structure (SMILES) | TGI [1] | TGI [2] | TGI [3] | TGI [4] | TGI [5] | TGI [6] | TGI [7] | TGI [8] | TGI [9] | TGI [10] | GI50 [9] | GI50 [1] | GI50 [2] | GI50 [4] | GI50 [5] | GI50 [6] | GI50 [7] | GI50 [8] | GI50 [3] | GI50 [10]
1 | O=C(OCc1nc2ccc(Br)cc2c(=O)n1-c1ccccc1)c1ccccc1O | > 100 µM | > 100 µM | > 100 µM | > 100 µM | > 100 µM | > 100 µM | > 100 µM | > 100 µM |  |  |  |  |  |  |  |  |  |  |  | 
2 | CN1c2ccccc2C(=O)Nc2cnc(Cl)nc21 | > 100 µM | > 100 µM | > 100 µM | > 100 µM | > 100 µM | > 100 µM | > 100 µM | > 100 µM | > 100 µM |  |  |  |  |  |  |  |  |  |  | 
3 | O=C1c2cccc3cccc(c23)C(=O)N1CCCN1CCN(CCCN2C(=O)c3cccc4cccc(c34)C2=O)CC1 | > 100 µM |  | > 100 µM | > 100 µM | > 100 µM | > 100 µM | > 100 µM | > 100 µM |  |  |  |  |  |  |  |  |  |  |  | 
4 | O=C1/C(=C/c2ccccc2)CN(C(=O)OCC(Cl)(Cl)Cl)C/C1=C\c1ccccc1 | 3.28 µM |  | 2.3 µM | 4.65 µM | 5.46 µM |  |  | 24.6 µM |  | 6.23 µM |  |  |  |  |  |  |  |  |  | 
5 | O=[N+]([O-])O.[NH-]C1CCCCC1[NH-].[NH-]C1CCCCC1[NH-].[NH-]C1CCCCC1[NH-].[OH-].[OH-].[OH-].[Pt+4].[Pt+4].[Pt+4] (configuration not stated) | 38.1 µM | 2.98 µM | > 100 µM | 11.9 µM | 3.19 µM | > 68.1 µM | 9.33 µM | > 100 µM | > 59.3 µM |  | 1.15 µM | 0.513 µM | 0.212 µM | 0.918 µM | 0.0408 µM | 2.16 µM | 0.222 µM | 19.6 µM |  | 
6 | CCSc1nc(N)c2cnn(C)c2n1 | > 100 µM | > 100 µM | > 100 µM | > 100 µM | > 100 µM | > 100 µM | > 100 µM | > 100 µM | > 100 µM |  | > 100 µM | 40.6 µM | 62.9 µM | 52 µM | 80 µM | 30.6 µM | 25.9 µM | 54.8 µM | 34.2 µM | 
7 | COC(=O)C1=C(O)C(C(=O)OC)[C@@]2(O)[C@@H](C(=O)OC)C(c3ccc(OC(=O)C(CC(C)C)NC(C)=O)cc3)C[C@@H]1[C@@H]2C(=O)OC (some centres not stated) | 76.4 µM | > 100 µM | > 100 µM | 88.1 µM | > 100 µM | > 100 µM | > 100 µM |  | > 100 µM |  | 39 µM | 26.5 µM | 60.9 µM | 27.5 µM | 46.2 µM | > 100 µM | > 100 µM |  | 55.5 µM | 
8 | C#Cc1ccc(-n2c(/C=C/c3cc(OC)c(OC)c(OC)c3)nc3ncccc3c2=O)cc1 | > 100 µM | 6.29 µM | 49.6 µM | > 100 µM | > 100 µM | 6.42 µM | > 100 µM | 77.7 µM | 34.5 µM |  | 3.61 µM | 9.93 µM | 2.33 µM | 4.94 µM | 5.31 µM | 2.33 µM | 6.07 µM | 5.33 µM | 3.29 µM | 
9 | Cc1c(-c2coc(-c3ccc(Cl)cc3)n2)c(=O)n(-c2ccccc2)n1C | > 100 µM | > 100 µM |  | > 100 µM | > 100 µM | > 100 µM |  | > 100 µM |  | > 100 µM |  |  |  |  |  |  |  |  |  | 
10 | Cn1c(COC(=O)NCCN2CCOCC2)nc2c(N3CCOCC3)nc(-c3ccccc3)nc21 | 2.9 µM | 2.02 µM | 1.78 µM | 2.58 µM | 2.23 µM | 1.53 µM | 1.72 µM | 16.1 µM | 6.78 µM |  | 1.93 µM | 1.37 µM | 0.424 µM | 1.15 µM | 0.843 µM | 0.343 µM | 0.449 µM | 4.79 µM | 0.444 µM | 
11 | Cn1cc(-c2nn3cc(-c4cccs4)nc3s2)c2cc(F)ccc21 | 17.9 µM | 24.5 µM | > 100 µM | > 100 µM | 52.3 µM | 9.67 µM | 57.4 µM | 70.9 µM | 19.1 µM |  | 0.991 µM | 2.76 µM | 1.62 µM | 1.05 µM | 7.62 µM | 2.06 µM | 2.42 µM | 3.47 µM | 0.478 µM | 
12 | C=C(C)[C@@H]1CCC[C@]2(C(=O)O)CC[C@]3(C)[C@@H](CC[C@@H]4[C@@]5(C)C/C(=C/c6ccncc6)C(=O)C(C)(C)[C@@H]5CC[C@]43C)[C@@H]12 | 7.38 µM | 9.14 µM | 9.6 µM | 5.85 µM | 6.23 µM | 3.85 µM | 13.9 µM | 34.3 µM | > 100 µM |  | 3.99 µM | 2.14 µM | 2.74 µM | 2.24 µM | 2.24 µM | 1.89 µM | 3.34 µM | 4.91 µM | 3.14 µM | 
13 | COc1cc2c(c(OC)c1OC)-c1ccc(SC)c(=O)cc1[C@@H](NC(=O)c1ccc(C#N)cc1)CC2 | < 0.0316 µM | < 0.01 µM | > 100 µM |  | 20.9 µM | < 0.0108 µM |  |  |  | > 100 µM |  |  |  |  |  |  |  |  |  | 
14 | O=C1CC2Sc3ccccc3N=C2N1c1ccc(Cl)cc1Cl (configuration not stated) | > 100 µM |  | > 100 µM | > 100 µM | > 100 µM | > 100 µM |  |  |  |  |  |  |  |  |  |  |  |  |  | 
15 | COc1ccc(-n2nc(C)c3c2N(C)C2(C)C[C@@H]4C3(C)[C@@H]3CC4(C2)N(C)c2c(c(C)nn2-c2ccc(OC)cc2)[C@H]3C)cc1 (some centres not stated) | 22.5 µM | 6.94 µM |  |  | 29.6 µM | > 100 µM |  | 9.54 µM | > 100 µM |  | 8.03 µM | 3.94 µM | 0.891 µM |  | 5.47 µM | 7.14 µM |  | 2.53 µM |  | 
16 | CCOC(=O)NNC(=O)NC12CC3CC(CC(C3)C1)C2 | > 100 µM | > 100 µM | > 100 µM | > 100 µM | > 100 µM | > 100 µM | > 100 µM | > 100 µM |  |  |  |  |  |  |  |  |  |  |  | 
17 | Clc1ccccc1C1=NN(c2ccccc2)C2c3cc(Br)ccc3OCC12 (configuration not stated) | > 100 µM | > 100 µM | > 100 µM |  | > 100 µM | > 100 µM |  | > 100 µM |  |  |  |  |  |  |  |  |  |  |  | 
18 | COc1cc(CC(=O)c2ccc3c(c2)OCO3)cc(OC)c1OC | > 100 µM | > 100 µM | 46.3 µM | > 100 µM | > 100 µM | > 100 µM | > 100 µM | > 100 µM |  |  |  |  |  |  |  |  |  |  |  | 
19 | CC(C)=C1CCC(CN2CCCC2)C1=O (configuration not stated) |  |  | 47.5 µM | 34.1 µM | 30.8 µM | 31.3 µM | 28.9 µM |  |  | 35.9 µM |  |  |  |  |  |  |  |  |  | 
20 | CC1SC2(CCCCC2)N(NC(=O)c2[nH]c3ccc(F)cc3c2-c2ccccc2)C1=O (configuration not stated) | > 100 µM | > 100 µM | > 100 µM | > 100 µM | 89.2 µM | > 100 µM | > 100 µM | > 100 µM |  |  |  | 48.5 µM | 54.4 µM | > 100 µM | 28.4 µM | 25.2 µM | > 100 µM | > 100 µM | > 100 µM | 
21 | COC(=O)Nc1nc2ccc(Sc3ccc(NC(=O)Nc4cc(C(F)(F)F)ccc4F)cc3)cc2[nH]1 | 7.28 µM | 6.27 µM | 5.52 µM | 8.26 µM | 13.8 µM | 6.26 µM | 18.8 µM | 14.3 µM | 11.5 µM |  | 2.74 µM | 3.27 µM | 2.05 µM | 2.01 µM | 5.64 µM | 3.05 µM | 3.86 µM | 5.1 µM | 1.43 µM | 
22 | COc1ncnc2c(-c3ccco3)cn(COCc3ccccc3)c12 | > 50 µM | > 50 µM | > 50 µM | > 50 µM | > 50 µM | > 50 µM | > 50 µM | > 50 µM | > 50 µM |  | > 50 µM | 10.6 µM | 9.97 µM | 22.5 µM | 17.7 µM | > 50 µM | > 50 µM | > 50 µM | > 50 µM | 
23 | COc1cc(/C=C\c2cccnc2Nc2ccccc2)cc(OC)c1OC | > 100 µM | 40.7 µM | > 100 µM | 38.1 µM | 44.1 µM | 28.7 µM | 61.1 µM | > 100 µM | 63.2 µM |  | 4.44 µM | 4.1 µM | 7.44 µM | 8.99 µM | 5.98 µM | 7.45 µM | 4.01 µM | 11.1 µM | 4.81 µM | 
24 | CCN1CC2(C)CC[C@@H](OC)C34[C@@H]2[C@H](OC(C)=O)C2(OCO[C@@]25C[C@H](OC)C2C[C@]3(O)[C@@H]5[C@H]2O)[C@H]14 | > 100 µM | > 100 µM | > 100 µM | > 100 µM | > 100 µM | > 100 µM | > 100 µM |  |  | > 100 µM |  |  |  |  |  |  |  |  |  | 
25 | O=C1/C(=C/c2ccccc2)CN(C(=O)Oc2ccc([N+](=O)[O-])cc2)C/C1=C\c1ccccc1 | 4.2 µM and 3.31 µM | 8.54 µM and 5.13 µM | 2.47 µM | 6.74 µM and 3.51 µM | 3.55 µM | 5.58 µM |  |  |  | 5.54 µM and 0.775 µM |  | 1.56 µM | 2.15 µM | 1.71 µM | 1.74 µM |  |  |  | 1.27 µM | 0.261 µM
